Assay [1] has as its target T1, EP2 receptor (Homo sapiens, UniProt P43116). Briefly: Binding at the EP2 receptor (assays described in WO 2005/044501). An excerpt:
(§1) The compound above has the following activity at the EP2 receptor according to the assays described in WO 2005/044501.

The target of assay [2] is T1, EP2 receptor. Briefly: cAMP assay at the EP2 receptor (assays described in WO 2005/044501). The class given is cell-based.
Text: as §1

One may read the Ki as the equilibrium dissociation constant of an inhibitor or competing ligand from its target. In general, EC50 refers to the midpoint of the concentration-response curve. A high value points to a need for much substance.

T1 sequence (P43116 whole entry): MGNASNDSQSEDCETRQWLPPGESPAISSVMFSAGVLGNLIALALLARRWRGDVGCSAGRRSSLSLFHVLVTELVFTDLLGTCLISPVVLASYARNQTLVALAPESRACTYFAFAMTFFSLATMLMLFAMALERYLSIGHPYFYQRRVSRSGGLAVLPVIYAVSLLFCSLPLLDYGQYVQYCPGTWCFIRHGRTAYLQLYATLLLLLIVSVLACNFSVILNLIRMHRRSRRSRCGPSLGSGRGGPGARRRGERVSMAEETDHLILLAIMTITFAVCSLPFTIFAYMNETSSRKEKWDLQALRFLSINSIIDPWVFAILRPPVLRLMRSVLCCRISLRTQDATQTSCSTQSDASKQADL

`N#C[C@@H]1C[C@@H](O)[C@H](/C=C/CC(O)C2(Cc3ccc(Cl)s3)CCC2)[C@H]1C/C=C\CCCC(=O)O` (stereo partly drawn) [(Z)-7-((1S,2R,3R,5R)-2-((E)-4-(1-((5-chlorothiophen-2-yl)methyl)cyclobutyl)-4-hydroxybut-1-enyl)-5-cyano-3-hydroxycyclopentyl)hept-5-enoic acid]: in assay [1], the affinity, expressed as Ki, was 116 nM. In assay [2], the EC50 came to 3 nM.
